Measured values taken from patent publication US9734282B2, “Biological dataset profiling of cardiovascular disease and cardiovascular inflammation” (DISCOVERX CORPORATION, priority 2005, dated 2017).

Tests used:
[1] = test system: Peripheral Blood Mononuclear Cells + Endothelial Cells; assay: BioMAP SAg system (PBMC + endothelial cells, TCR), cell-based ELISA; design: species or system human; settings: for CD69 level / E-selectin level / IL-8 level: protein level drug-treated versus buffer control, 24 h
Description: (§1) Human umbilical vein endothelial cells (HUVEC) were cultured according to standard methods, and plated into microtiter plates. Peripheral blood mononuclear cells (PBMC) were prepared from buffy coats from normal human donors according to standard methods. Experiments were performed by culturing HUVEC in microtiter plates in the presence of cytokines (IL-1b, 1 ng/ml; TNF-a, 5 ng/ml; and IFN-g, 100 ng/ml, or IL-4, 5 ng/ml and histamine, […]), activators (SAg, 20 ng/ml or LPS, 0.2 ng/ml), and/or PBMC (7.5×10^4 cells/well) for 24 h. Compounds were tested at the indicated concentrations. Compounds were prepared in the solvent as directed, added 1 hr before stimulation of the cells, and were present during the whole 24 hr stimulation period.
(§2) The levels of readout parameters (proteins) were measured by cell-based ELISA. Briefly, microtiter plates are treated, blocked, and then incubated with primary antibodies or isotype control antibodies (0.01-0.5 mg/ml) for 1 hr. After washing, plates were incubated with a peroxidase-conjugated anti-mouse IgG secondary antibody or a biotin-conjugated anti-mouse IgG antibody for 1 hr followed by streptavidin-HRP for 30 min. Plates were washed and developed with TMB substrate and the absorbance (OD) was read at 450 nm (subtracting the background absorbance at 650 nm). Other readout parameters include: total protein levels (SRB assay), measuring the viability of peripheral blood mononuclear cells (incorporation of propidium iodide); and microscopic visualization. SRB was performed by staining cells with 0.1% sulforhodamine B after fixation with 10% TCA, and reading wells at 560 nm. PBMC viability was assessed by adding propidium iodide (10 mg/ml) to PBMC that had been cultured for 24 hours in the presence of activators and measuring the percentage of cells that incorporated dye by flow cytometry after 10 minutes.
(§3) For data analysis, mean OD values (or other measurements) for each parameter were calculated from triplicate samples per experiment. The mean value obtained for each parameter in a treated sample was then divided by the mean value from an appropriate control to generate a ratio. All ratios were then log 10 transformed. An average or “trusted” profile was created by averaging 2 repeats of the experiment for each compound and concentration combination. 99% prediction envelopes (grey shading in Figures) were calculated for historical controls.

[2] = test system: Primary Human Endothelial Cells (HUVEC); assay: BioMAP 3C system (endothelial cells + IL-1β + TNF-α + IFN-γ), cell-based ELISA; settings: for uPAR level: protein level drug-treated versus buffer control, 24 h
Description: Human umbilical vein endothelial cells (HUVEC) were cultured according to standard methods, and plated into microtiter plates. Peripheral blood mononuclear cells (PBMC) were prepared from buffy coats from normal human donors according to standard methods. Experiments were performed by culturing HUVEC in microtiter plates in the presence of cytokines (IL-1b, 1 ng/ml; TNF-a, 5 ng/ml; and IFN-g, 100 ng/ml, or IL-4, 5 ng/ml and histamine, […]), activators (SAg, 20 ng/ml or LPS, 0.2 ng/ml), and/or PBMC (7.5×10^4 cells/well) for 24 h. Compounds were tested at the indicated concentrations. Compounds were prepared in the solvent as directed, added 1 hr before stimulation of the cells, and were present during the whole 24 hr stimulation period. The levels of readout parameters (proteins) were measured by cell-based ELISA. Briefly, microtiter plates are treated, blocked, and then incubated with primary antibodies or isotype control antibodies (0.01-0.5 mg/ml) for 1 hr. After washing, plates were incubated with a peroxidase-conjugated anti-mouse IgG secondary antibody or a biotin-conjugated anti-mouse IgG antibody for 1 hr followed by streptavidin-HRP for 30 min. Plates were washed and developed with TMB substrate and the absorbance (OD) was read at 450 nm (subtracting the background absorbance at 650 nm). Other readout parameters include: total protein levels (SRB assay), measuring the viability of peripheral blood mononuclear cells (incorporation of propidium iodide); and microscopic visualization. SRB was performed by staining cells with 0.1% sulforhodamine B after fixation with 10% TCA, and reading wells at 560 nm. PBMC viability was assessed by adding propidium iodide (10 mg/ml) to PBMC that had been cultured for 24 hours in the presence of activators and measuring the percentage of cells that incorporated dye by flow cytometry after 10 minutes. For data analysis, mean OD values (or other measurements) for each parameter were calculated from triplicate samples per experiment. […] 99% prediction envelopes (grey shading in Figures) were calculated for historical controls.

[3] = test system: Primary Human Endothelial Cells (HUVEC); assay: BioMAP 4H system (endothelial cells + IL-4 + histamine), cell-based ELISA; settings: protein level drug-treated versus buffer control, 24 h
Description: as §1, §2, §3

[4] = test system: HUVEC and HUVEC + PBMC systems; assay: 4 system BioMAP activity profile (3C, 4H, LPS, SAg); assay type: cell-based, human; settings: data not shown
Description: as §1, §2
For data analysis, mean OD values (or other measurements) for each parameter were calculated from triplicate samples per experiment. […] 99% prediction envelopes (grey shading in Figures) were calculated for historical controls.

[5] = test system: Peripheral Blood Mononuclear Cells + Endothelial Cells; assay: BioMAP LPS system (PBMC + endothelial cells, TLR4), cell-based ELISA; design: species or system human
Description: Human umbilical vein endothelial cells (HUVEC) were cultured according to standard methods, and plated into microtiter plates. Peripheral blood mononuclear cells (PBMC) were prepared from buffy coats from normal human donors according to standard methods. Experiments were performed by culturing HUVEC in microtiter plates in the presence of cytokines (IL-1b, 1 ng/ml; TNF-a, 5 ng/ml; and IFN-g, 100 ng/ml, or IL-4, 5 ng/ml and histamine, […]), activators (SAg, 20 ng/ml or LPS, 0.2 ng/ml), and/or PBMC (7.5×10^4 cells/well) for 24 h. Compounds were tested at the indicated concentrations. Compounds were prepared in the solvent as directed, added 1 hr before stimulation of the cells, and were present during the whole 24 hr stimulation period. The levels of readout parameters (proteins) were measured by cell-based ELISA. Briefly, microtiter plates are treated, blocked, and then incubated with primary antibodies or isotype control antibodies (0.01-0.5 mg/ml) for 1 hr. After washing, plates were incubated with a peroxidase-conjugated anti-mouse IgG secondary antibody or a biotin-conjugated anti-mouse IgG antibody for 1 hr followed by streptavidin-HRP for 30 min. Plates were washed and developed with TMB substrate and the absorbance (OD) was read at 450 nm (subtracting the background absorbance at 650 nm). Other readout parameters include: total protein levels (SRB assay), measuring the viability of peripheral blood mononuclear cells (incorporation of propidium iodide); and microscopic visualization. SRB was performed by staining cells with 0.1% sulforhodamine B after fixation with 10% TCA, and reading wells at 560 nm. PBMC viability was assessed by adding propidium iodide (10 mg/ml) to PBMC that had been cultured for 24 hours in the presence of activators and measuring the percentage of cells that incorporated dye by flow cytometry after 10 minutes. For data analysis, mean OD values (or other measurements) for each parameter were calculated from triplicate samples per experiment. The mean value obtained for each parameter in a treated sample was then divided by the mean value from an appropriate control to generate a ratio. All ratios were then log 10 transformed. An average or “trusted” profile was created by averaging 2 repeats of the experiment for each compound and concentration combination. 99% prediction envelopes (grey shading in Figures) were calculated for historical controls.

[6] = test system: Macrophages + HUVEC; assay: BioMAP Mphg system (macrophages + endothelial cells + Zymosan); assay type: cell-based, human
Description: Macrophages, are generated from human peripheral blood mononuclear cells. Human peripheral blood mononuclear cells are isolated from blood by Ficoll-hypaque density gradient centrifugation as described (Ponath, JEM 183:2437, 1996). Monocytes are then isolated by negative selection using the Monocyte Isolation Kit II (Miltenyi Biotec, Germany) MACS beads according to the manufacturer's instructions. Alternatively, 10×10^6 peripheral blood mononuclear cells/ml are cultured in RPMI containing 10% fetal bovine serum for 3 hours and non-adherent lymphocytes are removed by gentle washing. The following are then applied for 7 to 8 days: MCSF (50 ng/ml) alone, or MCSF+one of the following cytokines, IL-4 (20 ng/ml), IL-6 (20 ng/ml), IFN-gamma (10 ng/ml), or GM-CSF (10 ng/ml)+IL-4 (20 ng/ml). To generate foam cells, the culture media is replaced with media containing 40% autologous serum or 40% Human AB Serum male (Cambrex Bioproducts) in RPMI+MCSF 50 ng/ml for an additional 4 to 5 days. Cells are harvested and resuspended to 10^6 cells/ml and added to confluent endothelial cells. Primary human umbilical vein endothelial cells (HUVEC) are used. Other cells that may replace HUVEC in the screen include primary microvascular endothelial cells, aortic or arteriolar endothelial cells. 7.5×10^4 cells/ml are cultured to confluence in EGM-2 (Clonetics). […]

[7] = test system: Primary human umbilical artery smooth muscle cells (UASMC); assay: BioMAP SM3C system (smooth muscle cells + IL-1 + TNF-a + IFNg); assay type: cell-based
Description: Primary human umbilical artery smooth muscle cells (UASMC) are used. Other cells that may replace UASMC in the screen include primary aortic, bronchial, coronary artery or pulmonary artery smooth muscle cells. Other muscle cells of interest include skeletal muscle cells and cardiomyocytes. Passage 5-7 cells are used for the screen. 4×10^4 cells/ml are cultured to 100% confluence on CellBind plates (Costar) in SmGM-2 (Clonetics) containing 5% FBS. In some cases, SmGM-2 may be removed 24 hours before screen, and replaced with serum-free SmBM basal media (Clonetics) supplemented with insulin. The following are then applied for 24 hours: Factors include a combination of IL-4 (5 ng/ml), and histamine (HIS) (10 μM) or a combination of IL-1 (1 ng/ml), TNF-a (5 ng/ml) and IFNg (20 ng/ml) (SM3C) and/or thrombin (10 units/ml) for 6 and/or 24 hours. Standard concentrations of agents are employed as described in the literature. Other factors of interest include: IL-6, LPS, endothelin-1 and angiotensin II. Based on the parameters altered by the indicated factors, BioMAPs are generated for the parameters VCAM, HLA-DR, IL-8, MCP-1, Thrombomodulin, tissue factor, LDL-receptor and uPAR. […]

[8] = test system: heart transplant patients; settings: cited from earlier work
[9] = protein level drug-treated versus buffer control, 24 h

SMILES: S=C([S-])OC1CC2CC1C1CCCC21.[K+] (stereo not drawn) [D609]
- CD69 level [1]: downregulation
- E-selectin level [1]: upregulation
- IL-8 level [1]: upregulation

SMILES: CCCCCCCCCCCCCCCCCCOCC(COP(=O)([O-])OCC[N+](C)(C)C)OC (stereo not drawn) [ET-18-OCH3]
- CD69 level [1]: downregulation
- E-selectin level [1]: upregulation
- IL-8 level [1]: upregulation

SMILES: CC(C)c1c(C(=O)Nc2ccccc2)c(-c2ccccc2)c(-c2ccc(F)cc2)n1CC[C@@H](O)C[C@@H](O)CC(=O)O [atorvastatin]
- uPAR level [2]: significant decreases
- Eotaxin-3 level [3]: increases
- MCP-1 level [3]: significant decreases
- BioMAP profile compared with the lovastatin profile [4]: induce the same BioMAP profile

SMILES: COCc1c(C(C)C)nc(C(C)C)c(/C=C/[C@@H](O)C[C@@H](O)CC(=O)O)c1-c1ccc(F)cc1 [cerevistatin]
- BioMAP profile compared with the lovastatin profile [4]: induce the same BioMAP profile

SMILES: CC[C@H](C)C(=O)O[C@H]1C[C@@H](C)C=C2C=C[C@H](C)[C@H](CC[C@@H]3C[C@@H](O)CC(=O)O3)[C@H]21 [lovastatin]
- uPAR level [2]: significant decreases
- Eotaxin-3 level [3]: increases
- MCP-1 level [3]: significant decreases
- IL-1alpha level [5, 9]: significant decreases
- M-CSF level [5, 9]: increases
- tissue factor level [5, 9]: increases

SMILES: CC[C@H](C)C(=O)O[C@H]1CCC=C2C=C[C@H](C)[C@H](CC[C@@H]3C[C@@H](O)CC(=O)O3)[C@H]21 [mevastatin]
- BioMAP profile compared with the lovastatin profile [4]: induce the same BioMAP profile

SMILES: COc1c(C)c2c(c(O)c1C/C=C(\C)CCC(=O)O)C(=O)OC2 [mycophenolic acid]
- MCP-1 level [2]: inhibition
- MCP-1 level [5]: inhibition
- MCP-1 level [1]: inhibition
- MCP-1 level [6]: inhibition
- MCP-1 level [7]: inhibition
- long-term benefit against post-transplant vasculopathy [8]: protecting against post-transplant vasculopathy
